Reference: patent US20040121965A1, “Method of treating resistant tumors” (Wyeth Holdings Corporation, priority 2002, published 2004)
Read-outs that look alike come from different tables or passages of the source. Marks after values point to notes of the source that are not given here.

Experiments:
KB-HTI-4.0 = assay: Cell survival assay, KB-3-1 line made resistant to Example 129 (KB-HTI-4.0); type: cell-based, human; details: for IC50: Homo sapiens
Colo205 = assay: Cell survival assay (SRB), Colo205; type: cell-based; details: Homo sapiens, COLO 205, 72 h
Experimental: (§1) 2.2. Cell Survival Assay: Standard Pharmacological Test Procedure. […] Compounds are incubated with cells for 3 days.

DLD-1 tumor = assay: Growth of tumors in nude mice, DLD-1 xenograft; type: in vivo; details: days 1,5,9
Text: (§2) 2.4. Growth of Tumors in Nude Mice.

A375 = assay: Cell survival assay (SRB), A375; type: cell-based; details: Homo sapiens, A-375, 72 h
Experimental: as §1

Capan-1 = assay: Cell survival assay (SRB), Capan-1; type: cell-based; details: Homo sapiens
Experimental: as §1

BT474 = assay: Cell survival assay (SRB), BT474; type: cell-based; details: Homo sapiens, BT-474, 72 h
Experimental: as §1

HT-29 = assay: Cell survival assay (SRB), HT-29; type: cell-based; details: Homo sapiens
Experimental: as §1

SK-MES-1 = assay: Cell survival assay (SRB), SK-MES-1; type: cell-based; details: Homo sapiens
Experimental: as §1

BxPC3 = assay: Cell survival assay (SRB), BxPC3; type: cell-based; details: Homo sapiens, BXPC-3, 72 h
Experimental: as §1

Lox = assay: Cell survival assay (SRB), Lox; type: cell-based; details: Homo sapiens, 72 h
Experimental: as §1

U87 = assay: Cell survival assay (SRB), U87; type: cell-based; details: Homo sapiens, U-87 MG, 72 h
Experimental: as §1

[1] = system: KB-PTX-15+099 tumor xenografts; assay: Growth of tumors in nude mice, KB-PTX-15+099 xenograft; details: days 1,8,15
[2] = system: Human Epidermoid Carcinoma KB-3-1; assay: Growth of tumors in nude mice, KB-3-1 xenograft; type: in vivo; details: for % T/C on day 7 / % T/C on day 14 / % T/C on day 21: KB-3-1, days 1,5,9
Experimental: as §2
In these experiments, xenografts are implanted subcutaneously into the flanks of nude mice. […] Relative tumor mass compared to controls are assessed during the 21-day post-staging period.
Groups of 5 female nu/nu mice are injected with 1.5×10^6 KB-3-1 (A) or Lox cells (B). […] Relative tumor growth is determined during the experiment and % T/C calculated. Statistical analyses are Student's t-test of treated time points vs. vehicle (*, P<0.05; **, P<0.01)

KB-8.5 tumor = assay: Growth of tumors in nude mice, KB-8-5 xenograft; type: in vivo; details: days 1,5,9
Text: as §2

## CN[C@H](C(=O)N[C@H](C(=O)N(C)[C@H](/C=C(\C)C(=O)O)C(C)C)C(C)(C)C)C(C)(C)c1ccccc1 [Example 129, N,β,β-trimethyl-L-phenylalanyl-N^1-[(1S,2E)-3-carboxy-1-isopropylbut-2-enyl]-N^1,3-dimethyl-L-valinamide]
KB-HTI-4.0
  (RR) relative resistance vs. parental cells: (12)
  resistance of KB-3-1-derived cell lines selected with Example 129: approximately 12 fold
KB-HTI-4.0; KB 3-1, read-out: KB-HTI-4.0 IC50, nM
  IC50: 6.5 ± 1.6 nM
Colo205
  IC50: 1.5 ± 0.6 nM
DLD-1 tumor; Example 129 1.6 mg/kg IV
  % T/C on day 7: 22** %
  % T/C on day 14: 20** %
  % T/C on day 21: 44%
A375
  IC50: 1.1 ± 0.8 nM
Capan-1; CAPAN-1, 72 h
  IC50: 1.4 nM
BT474
  IC50: 2.5 ± 1.6 nM
HT-29; HT-29, 72 h
  IC50: 1.6 nM
SK-MES-1; SK-MES-1, 72 h
  IC50: 2.6 nM
BxPC3
  IC50: 0.7 nM
Lox; LOX
  IC50: 1.4 ± 0.6 nM
U87
  IC50: 2.4 ± 0.3 nM
[1]; Example 129 1.25 mg/kg IV
  % T/C on day 6: 32** %
  % T/C on day 9: 19** %
  % T/C on day 13: 9** %
  % T/C on day 16: 10** %
  % T/C on day 20: 7** %
[2]; IV in saline, days 1, 5, 9 post-staging, 0.5-1 mg/kg, tumors 1-2 gram
  growth inhibition of epidermoid KB-3-1 tumors: > 95%
[2]; Example 129 1.6 mg/kg IV
  % T/C on day 7: 10** %
  % T/C on day 14: 1** %
  % T/C on day 21: 23* %
KB-8.5 tumor; Example 129 1.6 mg/kg IV
  % T/C on day 6: 25** %
  % T/C on day 14: 16%
  % T/C on day 21: 47** %

## CC(=O)O[C@H]1C(=O)[C@@]2(C)[C@H]([C@H](OC(=O)c3ccccc3)[C@]3(O)C[C@H](OC(=O)[C@H](O)[C@@H](NC(=O)c4ccccc4)c4ccccc4)C(C)=C1C3(C)C)[C@]1(OC(C)=O)CO[C@@H]1C[C@@H]2O [paclitaxel, reference compound]
KB-HTI-4.0; KB-3-1 line made resistant to Example 129, Table 8, read-out: KB-HTI-4.0 IC50
  IC50: 3.18 ± 0.62 nM
Colo205; Colo205, colon, 3 days, SRB staining, read-out: IC50
  IC50: 6.9 ± 2.3 nM
DLD-1 tumor; paclitaxel 60 mg/kg IV
  % T/C on day 7: 71%
  % T/C on day 14: 73%
A375; A375, melanoma, 3 days, SRB staining, read-out: IC50
  IC50: 14.1 ± 7.3 nM
Capan-1; 72 h, Capan-1, pancreatic, 3 days, SRB staining, read-out: IC50
  IC50: 4 nM
BT474; BT474, breast, 3 days, SRB staining, read-out: IC50
  IC50: 10 nM
HT-29; 72 h, HT-29, colon, 3 days, SRB staining, read-out: IC50
  IC50: 6.1 nM
SK-MES-1; 72 h, SK-MES-1, NSCLC, 3 days, SRB staining, read-out: IC50
  IC50: 29 nM
BxPC3; BxPC3, pancreatic, 3 days, SRB staining, read-out: IC50
  IC50: 10.8 nM
Lox; Lox, melanoma, 3 days, SRB staining, read-out: IC50
  IC50: 17.3 ± 5.6 nM
U87; U87, glioblastoma, 3 days, SRB staining, read-out: IC50
  IC50: 25.1 nM
[1]; paclitaxel 60 mg/kg IV
  % T/C on day 6: 103%
  % T/C on day 9: 93%
  % T/C on day 13: 89%
  % T/C on day 16: 87%
  % T/C on day 20: 90%
[2]; paclitaxel 60 mg/kg IV
  % T/C on day 7: 5** %
  % T/C on day 14: 0** %
  % T/C on day 21: 0** %
KB-8.5 tumor; paclitaxel 60 mg/kg IV
  % T/C on day 6: 63** %
  % T/C on day 14: 86%
